The record followed here is patent US20100132066A1, “AGROBACTERIUM-MEDIATED METHOD FOR PRODUCING TRANSFORMED PLANT WITHOUT SELECTION STEP” (JAPAN TOBACCO INC., priority 2007, published 2010).

Test [1] deals with Maize (variety: A188) immature embryos. In words: Regeneration of whole plants from immature embryos cultured on coculture medium supplemented with various types of auxin (Example 1). The test is classed as cell-based. The settings on record: auxin 1.5 mg/l in coculture medium; for Regeneration rate (%): 7 days, no selection step, LSZ medium 30 mg/l hygromycin about 2 weeks, LBA4404 (pSB134), 25 immature embryos; for Vigor: mean score 0-3 of regenerated plants, 2 weeks on regeneration medium. From the text:
As used herein, the term “vigor” is intended to mean the growth vigor of a regenerated plant. The vigor of a plant may be measured by any known technique used in the art. For example, in the case of maize, scoring may be performed as follows for each transformed plant tissue after the regeneration step: transformed plant tissue showing no regeneration=0, transformed plant tissue giving a regenerated shoot whose maximum length is less than 5 mm=1, transformed plant tissue giving a regenerated shoot whose maximum length is 5 mm to less than 2 cm=2, and transformed plant tissue giving a regenerated shoot whose maximum length is 2 cm or longer=3, followed by calculating a mean value for all transformed plant tissues to thereby determine their vigor. The method of evaluation of vigor is not limited to this technique, and appropriate modifications may be made to well-known techniques, e.g., depending on the type of target to be evaluated.
25 immature embryos were provided for each test. The bar graph (vertical axis on the left side) represents the vigor of regenerated plants, the line graph (vertical axis on the right side) represents the regeneration rate (calculated by dividing the number of immature embryos showing regeneration in each test by the number of inoculated immature embryos), and the horizontal axis represents the type of auxin contained in a coculture medium. The auxin concentration in the coculture medium was set to 1.5 mg/l for each test. The vigor of regenerated plants was evaluated by scoring as follows: immature embryo showing no regeneration=0, immature embryo giving a regenerated shoot whose maximum length is less than 5 mm=1, immature embryo giving a regenerated shoot whose maximum length is 5 mm to less than 2 cm=2, and immature embryo giving a regenerated shoot whose maximum length is 2 cm or longer=3.
Maize (variety: A188) immature embryos (1.0 to 1 5 mm in size) at 7 to 14 days after pollination were aseptically collected and washed once with LS-inf liquid medium (Non-patent Publication No. 11), followed by pretreatment (thermal treatment at 46° C. for 3 minutes and centrifugation at 15,000 rpm for 10 minutes) to increase gene transfer efficiency. In LS-inf liquid medium containing 100 μM acetosyringone, Agrobacterium strain LBA4404 (pSB134) (Non-patent Publication No. 27) was suspended at about 1.0×10^9 cfu/ml to prepare an inoculum. The thermally-treated and centrifuged immature embryos were mixed with the inoculum, vortexed for 30 seconds, and then allowed to stand for 5 minutes at room temperature.
The number of immature embryos which regenerated into whole plants was determined, and the regenerated plants were examined for their vigor.

In test [2] the test system is Immature embryos (variety: A188). As to the kind of experiment: Effect of dicamba and 2,4-D in coculture medium on regeneration (Example 2, FIG. 3). The test is classed as cell-based, Maize. The settings on record: for vigor of regenerated plants: mean score 0-3, coculture medium with this auxin alone (1.5 mg/l), selection step eliminated, FIG. 3. From the text:
FIG. 3 is a graph showing the effects of the dicamba/2,4-D ratio on the plant regeneration rate from cocultured immature embryos and on the vigor of regenerated plants. 38 immature embryos were provided for each test. The bar graph (vertical axis on the left side) represents the vigor of regenerated plants, the line graph (vertical axis on the right side) represents the regeneration rate (calculated by dividing the number of immature embryos showing regeneration in each test by the number of inoculated immature embryos), and the horizontal axis represents the percentage of dicamba contained in a coculture medium. The numerical values on the horizontal axis mean that auxin is contained in the coculture medium at the following ratios: 0 mg/l dicamba+1.5 mg/l 2,4-D (0% dicamba), 0.375 mg/l dicamba+1.125 mg/l 2,4-D (25% dicamba), 0.75 mg/l dicamba+0.75 mg/l 2,4-D (50% dicamba), 1.125 mg/l dicamba+0.375 mg/l 2,4-D (75% dicamba), and 1.5 mg/l dicamba+0 mg/l 2,4-D (100% dicamba). The vigor of regenerated plants was evaluated by scoring as follows: immature embryo showing no regeneration=0, immature embryo giving a regenerated shoot whose maximum length is less than 5 mm=1, immature embryo giving a regenerated shoot whose maximum length is 5 mm to less than 2 cm=2, and immature embryo giving a regenerated shoot whose maximum length is 2 cm or longer=3.
The vector U0009B shown in FIG. 2 and SEQ ID NO: 1 was constructed by adding necessary elements to a vector having pSB11 (Non-patent Publication No. 28) as a skeletal structure. […] The number of immature embryos which regenerated into whole plants was determined, and the regenerated plants were examined for their vigor.

Test [3] has the same test system. As to the kind of experiment: Transformation efficiency with regeneration medium containing blasticidin S (Example 4). It counts as cell-based, Maize. Particulars: for Number of immature embryos Regenerated: about 2 weeks, 46 inoculated.
[4] abbreviates: higher percentage of dicamba (0-100%, rest 2,4-D, total 1.5 mg/l) in coculture medium.
Setting [5] is: 2 mg/l blasticidin S in regeneration medium.

`O=C(O)COc1cc(Cl)c(Cl)cc1Cl` [2,4,5-T, 2,4,5-trichlorophenoxyacetic acid]: in test [1], the “Regeneration rate (%)” value was 84.0% and the Vigor is 1.5.
Take `O=C(O)c1cc(I)cc(I)c1I` [TIBA, 2,3,5-triiodobenzoic acid]: in test [1], the “Regeneration rate (%)” value stood at 4.0% and the Vigor is recorded as 0.1.
For `Nc1c(Cl)c(Cl)nc(C(=O)O)c1Cl` [Picloram, 4-amino-3,5,6-trichloropicolinic acid], in test [1], the “Regeneration rate (%)” value was determined as 76.4% and the Vigor was 1.2.
Consider `COc1c(Cl)ccc(Cl)c1C(=O)O` [Dicamba, 3,6-dichloro-o-anisic acid], for which, in test [2] (setting [4]), the “growth of the regenerated plants” value is on record as “more vigorous growth” and the regeneration rate entry was “higher regeneration rate”. Besides, the “vigor of regenerated plants” value in test [2] is given as 2.3. In test [1], the “Regeneration rate (%)” value stood at 100% and the Vigor was found to be 1.5.
On to `CN(CC[C@H](N)CC(=O)N[C@H]1C=C[C@H](n2ccc(N)nc2=O)O[C@@H]1C(=O)O)C(=N)N` [blasticidin, blasticidin S], for which, in test [3] (setting [5]), the “GUS−” value is given as 12; the “Number of immature embryos GUS+ (B)” value was 19; the “Striped, dotted (C)” value was 14; the “Number of immature embryos Regenerated” value came to 45. Also, the “Number of immature embryos Regenerated” value in test [3] (2 mg/l blasticidin S in regeneration medium, listed as blasticidin S) is reported as “Almost all”. For the same molecule, the “B/A (%)” value in test [3] (2 mg/l blasticidin S, GUS+ per inoculated embryos) is 41.3%. In test [3] (2 mg/l blasticidin S, striped/dotted per inoculated embryos), the “C/A (%)” value turned out to be 3.04%.
Take `O=C(O)COc1ccc(Cl)cc1Cl` [2,4-D, 2,4-dichlorophenoxyacetic acid]: the “vigor of regenerated plants” value in test [2] turned out to be 0.3. The “Regeneration rate (%)” value in test [1] is recorded as 84.0%.
